One series relates to gut microbiome. Kind of series: Microbiome (shotgun metagenomic sequencing) of DSS-induced colitis mice. Type of series: in vivo. The following applies: for gut microbiome composition (in words): induced colitis conditions.
The test system of series [1] is C57BL/6 mice with TNBS colitis. Kind of series: TNBS colitis in C57BL/6 mice. The class given is in vivo. Also on record: TNBS Efficacy / Clinical Score / Histological Score / Colon Length: key to the marks not given beside the values. On the procedure: (§1) C57BL/6 mice (20-22 grams) were fed ad lib and assigned to 4 different groups (n=8/group). After a 72 hr acclimation period the test group groups received 25 mg/kg of test compound PO (gavage) in vehicle daily. A control group received vehicle alone. After 24 hrs, mice were weighed and TNBS was injected intra-colonically using 5 cm of polyethylene (¼ inch) tubing. Mice were then treated with the test compounds and weighed daily for 4 days. Mice were sacrificed on day 4 and clinical score was assessed. Intestinal tissue for and blood were also collected. Tissues were either flash frozen and kept in −80° C. for RNA and protein isolation or placed in 10% formalin solution for future histological analysis. Blood was spun at 5K rpm for 5 min and serum was collected and kept at −20° C. for multiplex cytokine analysis.

In series [2] the test system is colon tissue gene expression. Kind of series: Colon tissue gene expression (RNA-Seq) in TNBS-induced colitis mice. Type of series: in vivo. The following applies: for expression of genes related to inflammatory response: vs untreated. The procedure: as §1, with “Method: TNBS colitis: C57BL/6” for “C57BL/6”
RNA Sequencing: RNA was extracted from mouse colon tissue at Athos Therapeutics and was sent at Zymo Research or the Technology Center for Genomics & Bioinformatics at UCLA for sequencing and partial bioinformatics analysis.
Libraries for RNA-Seq were prepared with KAPA Stranded mRNA-Seq Kit. The workflow consists of mRNA enrichment and fragmentation, first strand cDNA synthesis using random priming, followed by second strand synthesis converting cDNA:RNA hybrid to double-stranded cDNA (dscDNA), and incorporates dUTP into the second cDNA strand. cDNA generation is followed by end repair to generate blunt ends, A-tailing, adaptor ligation, and PCR amplification. Different adaptors were used for multiplexing samples in one lane. Sequencing was performed on NovaSeq6000 (SP) for a PE 2×150 run. Data quality checking was done on Illumina SAV. Data de-multiplexing was performed with Illumina Bcl2fastq v 2.19.1.403 software. The reads were mapped by STAR 2.27a and read counts per gene were quantified using the mouse Ensembl Musmusculus.GRCm38.97 GTF file. In Partek Flow (Partek® Flow® software, v7.0 Copyright©. 2019 Partek Inc., St. Louis, Mo., USA) read counts were normalized by CPM +1.0E-4.
Gene differential expression analysis and downstream gene enrichment analysis was performed at Athos Therapeutics. The DESeq2 R package was used for differential expression analysis. DESeq2 FDR cutoff: 0.05, DESeq2 Log 2FC cutoff: 1 (FC cutoff: 2). Gene enrichment analysis was performed using the Enrichr) (https://maayanlab.cloud/Enrichr/enrich) and gprofiler (https://biit.cs.ut.ee/gprofiler/gost) platforms.

A further series relates to Naïve human CD4 T cells. Kind of series: Differentiation of naïve human CD4 T cells into FoxP3+ Tregs (flow cytometry). Type of series: cell-based. The following applies: 500 nM, 5 days; for Tregs (%): anti-CD3 and anti-CD28 100 ng/ml, CD4highFoxP3high population; for increase of the number of Tregs over untreated: baseline 3.2%. The procedure: (§2) Naïve human CD4 T cells were cultured in DMEM supplemented with 10% heat-inactivated FBS, 2 mM glutamine, 100 U/ml penicillin, 100 μg/ml streptomycin and 25 mM Hepes. Human CD4 T cells were treated with anti-CD3 and anti-CD28 (100 ng/ml) together with small molecule compounds (500 nM) for 5 days. FoxP3 and CD4 positive cells were stained and imaged in a BD LSRII flow cytometer. The gated area represents the percentage CD4^highFoxP3^high immune cell population. Furthermore, the same small molecule compounds were evaluated for their effects on IL17 protein levels in human CD4 T cells by using an ELISA assay (R&D systems, cat no. D1700).

The next series deals with IL17. As to the kind of experiment: IL17 protein levels in human CD4 T cells (ELISA). Type of series: cell-based. On the procedure:
as §2

For the next series, the system named is J82. Kind of series: J82 bladder cancer cell viability (Real-Time-Glo). The following applies: Homo sapiens, 72 hr, read-out: IC50, Cell line: J82. Type of series: cell-based. On the procedure: To determine the plating density for cell viability assays, for each cell line, cells were counted and diluted to final densities of 2.5, 5, 10 and 20 thousand per 100 μl of their respective growth media per well in 96 well plates. A Promega Real-Time-Glo cell viability kit was used to determine the optimal concentration for cell plating so that each cell line would be within the linear part of its growth curve after 72 hrs in culture. For the determination of test compound IC50s different cancer cell lines were plated in 96 well plates in the pre-determined optimal density for each cell line. Test compounds were then added at different concentrations for the creation of six-point curve and cell density was determined using the Promega Real-Time-Glo cell viability kit after 24, 48, and 72 hrs in culture. Test compound 72 hr IC50s were calculated using the AAT Bioquest IC50 calculator.

Another series in a line: in vitro. The following applies: PAMPA, 5 hours at RT. In general terms: The PAMPA barrier holds no transporters, so it reflects passive diffusion.
Where [3] appears, read: DSS colitis mice, 25 mg/kg PO daily, p<0.05.

The values below come from patent US11485728B2, “Small molecules for the treatment of autoimmune diseases and cancer” (Athos Therapeutics, Inc., priority 2020, dated 2022).

SMILES strings stand for the structures.

From the text for in vitro: Parallel artificial membrane permeability (PAMPA) assay is a non-cell based assay designed to predict in vivo biological membrane permeability of drugs in early stage of drug discovery. […] The Corning Gentest Pre-coated PAMPA plate system was designed by 96-well insert system with a 0.45 μm PVDF (polyvinylidene fluoride) filter plate which has been pre-coated with structured tri-layers of phospholipids (lipid/oil/lipid) and a matched receiver microplate.
Donor solutions of test compounds (300 μL, 20 μM in PBS/MeOH 90:10) were added to each well of the donor plate. 200 μL of PBS/MeOH 90:10 was added to each well of the acceptor plate. The acceptor plate was coupled with the donor plate and incubated for 5 hours at room temperature (RT) without agitation. In each plate, compounds were tested in triplicate. At the end of the incubation, drug concentration in the initial donor solution, acceptor and the donor wells were determined using LC/MS/MS. A five (5) points standard curve from 0.1 to 1000 nM for each test compound were prepared. Analyte samples were diluted to within standard curve concentration with ACN/H2O 50:50 prior analysis.
All samples were analyzed by electrospray ionization (ESI) liquid chromatograph/mass spectrometry (LC/MS) system utilizing Sciex 5500 quadropule ion trap (Qtrap) mass spectrometry with Shidmazu Nexera X2 UHPLC. The LC-MS/MS instrument monitored each of the test compound in the study based of their respective mass-to-charge (m/z) transitions and MS parameters. Chromatographic separation was achieved on Phenomenex Luna C18 column (50×2.0 mm, 3 μm particle size) by using a gradient elution: mobile phase A contains 0.1% formic acid in water and mobile phase B contains 0.1% formic acid in acetonitrile; A/B (99:1) from 0 to 1 minutes; to A/B (1:99) from 1 to 4 minutes; A/B (1:99) from 4 to 8 minutes; to A/B (99:1) from 8 to 8.20 minutes; A/B (99:1) from 8.2 to 9 minutes. The flow rate was 0.4 mL/min and the column temperature was maintained at 35° C. and autosampler temperature at 4° C. For detection, the electrospray ionization operated in the positive mode using multiple reaction monitoring (MRM).
Data acquisition, and peak integrations were obtained by Analyst® Version 1.7.1 (Sciex) operating with Windows® (Microsoft). The standard curve regressions and sample concentrations were generated and calculated by Analyst®. Concentrations in the sample solutions were determined based on the measured peak area ratios from the response of the analyte to the internal standard with reference to the standard calibration curve. All sample calculations were calculated using a linear regression with 1/x^2 weighting (where x is the concentration of given calibration standard level).
Permeability of the test compounds was calculated using the following formula:
The permeability of compounds was evaluated with the parallel artificial membrane permeation assay (PAMPA) as an in vivo model of passive diffusion across a porous filter coated with a lipid/oil/lipid tri-layer artificial membrane. […] Donor solutions of test compounds (300 μL, 20 μM in PBS/MeOH 90:10) were added to each well of the donor plate. 200 μL of PBS/MeOH 90:10 was added to each well of the acceptor plate. The acceptor plate was coupled with the donor plate and incubated for 5 hours at room temperature (RT) without agitation. In each plate, compounds were tested in triplicate. At the end of the incubation, drug concentration in the initial donor solution, acceptor and the donor wells were determined using LC/MS/MS. Permeability of test compounds was calculated based on the formula described in the General Procedures above. The PAMPA permeability classification criteria are categorized into three (3) classes with a high (Pe≥1.5×10−6 cm/s), intermediate (5.5×10−8<Pe<1.5×10−6 cm/s), and low (Pe<5.5×10−8 cm/s) permeability.

Consider `COc1cc2c(NC3CCS(=O)(=O)CC3)nc(N3CCC(F)(F)CC3)nc2cc1OCCCN1CCCC1` [Compound 1, 4-((2-(4,4-difluoropiperidin-1-yl)-6-methoxy-7-(3-(pyrrolidin-1-yl)propoxy)quinazolin-4-yl)amino)tetrahydro-2H-thiopyran 1,1-dioxide], for which, in the series on gut microbiome (setting [3]), the Bacteroidetes phylum abundance entry is reported as “increase”, the Firmicutes phylum abundance entry is “significant decrease” and the Verrucomicrobia phylum abundance result is “increase”. The “gut microbiome composition (in words)” value in the series on gut microbiome is “significantly altered the gut microbiome composition and shifted it towards eubiosis”.
As to `COc1cc2c(NC3CCOCC3)nc(N3CCC(F)(F)CC3)nc2cc1OCCCN1CCCC1` [Compound 2, 2-(4,4-difluoropiperidin-1-yl)-6-methoxy-7-(3-(pyrrolidin-1-yl)propoxy)-N-(tetrahydro-2H-pyran-4-yl)quinazolin-4-amine], the “colitis associated damage in the intestine (in words)” value in series [1] (25 mg/kg PO daily) is “strong inhibitor of colitis associated damage in the intestine”. Further, in series [1] (25 mg/kg PO daily, day 4), the “Clinical Score” value is “++”, the “Colon Length” value is “++”, the “Histological Score” value is listed as “++” and the “TNBS Efficacy” value was “++”. For the same compound, the “histological scores (in words)” value in series [1] (vs vehicle treated controls) is given as “positive outcomes”. In series [2], the “expression of TNF” value was “significantly reduced expression”; the “expression of infliximab marker genes” value was “significantly reduced expression”; the “expression of pro-inflammatory cytokine and metalloproteinase pathway genes (22-gene signature)” value was “significantly reduced expression”; the “number of inflammatory response genes with significantly reduced expression” value is over 85 genes. The “expression of genes related to inflammatory response” value in series [2] is “significantly reduced expression levels”. Moreover, in series [2] (treated vs untreated), the “Log2FC 1l6” value was −4.82, the “Log2FC Ccl2” value is given as −2.71, the “Log2FC Ccl3” value was −7.36 and the “Log2FC Ccl7” value is on record as −2.73. Moreover, in series [2] (treated vs untreated), the “Log2FC Ccl9” value is reported as −1.15, the “Log2FC Csf3” value is −6.66, the “Log2FC Csf3r” value is listed as −3.19 and the “Log2FC Cxcl1” value is reported as −6.03. In addition, in series [2] (treated vs untreated), the “Log2FC Cxcl2” value is −8.30, the “Log2FC Cxcl3” value is reported as −10.19, the “Log2FC Cxcl5” value was −6.57 and the “Log2FC Il1a” value is listed as −6.05. In addition, in series [2] (treated vs untreated), the “Log2FC Il1b” value is on record as −6.17, the “Log2FC Il11” value was −4.05, the “Log2FC Il13ra2” value was −2.38 and the “Log2FC Mmp3” value is listed as −4.47. Besides, in series [2] (treated vs untreated), the “Log2FC Osm” value was −4.67, the “Log2FC Osmr” value was −1.24, the “Log2FC Ptgs2” value was −3.18 and the “Log2FC Stc1” value is recorded as −1.89. Moreover, in series [2] (treated vs untreated), the “Log2FC Tnfrsf11b” value is reported as −1.66. Further, in the series with gut microbiome (setting [3]), the Bacteroidetes phylum abundance result was “increase” and the Proteobacteria phylum abundance result is recorded as “increase”. In the series with gut microbiome, the “gut microbiome composition (in words)” value is “significantly altered the gut microbiome composition and shifted it towards eubiosis”. In the series on Naïve human CD4 T cells, the “Tregs (%)” value came out at 20.1% and the “increase of the number of Tregs over untreated” value was found to be 6.28 fold. Further, the IL17 protein levels result with IL17 is recorded as “do not have an effect”.
For `COc1cc2c(Nc3ccncc3)nc(N3CCC(F)(F)CC3)nc2cc1OCCCN1CCCC1` [Compound 7, 2-(4,4-difluoropiperidin-1-yl)-6-methoxy-N-(pyridin-4-yl)-7-(3-(pyrrolidin-1-yl)propoxy)quinazolin-4-amine], the IC50 – broadly, the midpoint of a concentration-inhibition curve – with J82 fell in the range of 1 to 5 µM.
`COc1cc2c(NC3CCN(C(C)C)CC3)nc(N3CCC(F)(F)CC3)nc2cc1OCCCN1CCCC1` [Compound 400, 2-(4,4-difluoropiperidin-1-yl)-N-(1-isopropylpiperidin-4-yl)-6-methoxy-7-(3-(pyrrolidin-1-yl)propoxy)quinazolin-4-amine, reference compound]: the IC50 in the series with J82 fell in the range of 5 to 10 µM. In addition, in series [2], the “expression of genes related to inflammatory response” value is “did not have any effect”. Besides, in the series on Naïve human CD4 T cells, the “Tregs (%)” value is on record as 4.7% and the “increase of the number of Tregs over untreated” value was determined as 1.46 fold. The IL17 protein levels entry with IL17 was “significantly suppresses”. Also, the apparent permeability coefficient (Papp) (as a rule, a coefficient for how fast a substance crosses the barrier) in “in vitro” (PAMPA permeability Classification, 20 μM donor) fell in the range of 0.055 to 1.5 ×10⁻⁶ cm/s. In the series “in vitro” (Permeability, Pe, 20 μM donor in PBS/MeOH 90:10), this compound returned a Papp of 0.178 ×10⁻⁶ cm/s.
